Laboratory results as given in article PMC2916045 (Journal of the American Chemical Society, 2010).
“Also recorded” adds a separate entry of the source.

Legend:
[1] = test system: α-tubulin acetylation; conditions: at 5 µM; ref 29 (Parmigiani et al.); cited from earlier work
[2] = test system: α-tubulin hyperacetylation, corresponding to HDAC6 inhibition; assay: α-tubulin hyperacetylation in cells; conditions: for α-tubulin hyperacetylation versus histone hyperacetylation: at 2.5 µM
[3] = test system: primary cortical neuron cultures; assay: HCA oxidative stress neuroprotection assay
[4] = test system: primary cortical neuron cultures; assay: Neuronal toxicity of compound alone; type: cell-based, Sprague-Dawley rats; conditions: all concentrations tested, without HCA, 24 h, MTT
[5] = in vitro ADME properties
[6] = test system: histone hyperacetylation, corresponds to class I HDAC inhibition; assay: histone hyperacetylation in cells; conditions: at 10 µM

Compound	α-tubulin acetylation [1]	α-tubulin hyperacetylation versus histone hyperacetylation [2]	neuroprotection in HCA-induced neurodegeneration assay ([3]; at 0.5 µM, HCA 5 mM, 24 h, MTT)	neurotoxicity in HCA-induced neurodegeneration assay ([3]; at concentrations higher than 0.5 µM, protection declined)	neuronal toxicity when tested alone [4]	in vitro ADME properties [5]	histone hyperacetylation [6]	concentration at which protection against HCA-induced neuronal cell death starts ([3]; HCA 5 mM, 24 h, MTT)	protection against HCA-induced neuronal cell death (glutathione depletion-induced oxidative stress) ([3]; HCA 5 mM, 24 h, MTT, concentration series)	protection against HCA-induced neuronal cell death ([3]; at 10 µM, HCA 5 mM, 24 h, MTT)	levels of acetylated α-tubulin ([2]; primary cortical neuron cultures)
O=C(CCCCCCC(=O)Nc1ccc([C@H]2O[C@@H](CSc3nc(-c4ccccc4)c(-c4ccccc4)o3)C[C@@H](c3ccc(CO)cc3)O2)cc1)NO [Tubacin, reference compound]	induces α-tubulin acetylation	preferentially induced α-tubulin hyperacetylation									
CC(/C=C/C(=O)NO)=C\[C@@H](C)C(=O)c1ccc(N(C)C)cc1 [TSA, trichostatin A, reference compound]			moderately neuroprotective	dose-dependant neurotoxicity							
CN1CCc2c(c3ccccc3n2Cc2ccc(C(=O)NO)cc2)C1.O=C(O)C(F)(F)F [compound 6, Tubastatin A]		preferentially induced α-tubulin hyperacetylation			exhibited no toxicity; also recorded: no neuronal toxicity	favorable in vitro ADME properties	Slight induction of histone hyperacetylation	5 µM	dose-dependent protection	near complete protection	induce elevated levels of acetylated α-tubulin
